Article PMC10568017, “A quest for the stereo-electronic requirements for selective agonism for the neurotrophin receptors TrkA and TrkB in 17-spirocyclic-dehydroepiandrosterone derivatives” (Frontiers in Molecular Neuroscience, 2023)

B1: brain-derived neurotrophic factor (protein, UniProt P23560 19-247, looked up)
Neurotrophic factor BDNF …: APMKEANIRGQGGLAYPGVRTHGTLESVNGPKAGSRGLTSLADTFEHVIEELLDEDQKVRPNEENNKDADLYTSRVMLSSQVPLEPPLLFLLEEYKNYLDAANMSMRVRRHSDPARRGELSVCDSISEWVTAADKKTAVDMSGGTVTVLEKVPVSKGQLKQYFYETKCNPMGYTKEGCRGIDKRHWNSQCRTTQSYVRALTMDSKKRIGWRFIRIDTSCVCTLTIKRGR
notes: native neurotrophin ligand of the TrkB receptor, positive control at 500 ng/mL

Key:
PC12 cells = experiment: CellTox assay, survival of PC12 cells under serum deprivation; format: cell-based; details: compound 500 nM, 24 h, after 4 h serum starvation; NGF 100 ng/mL as control (Figure 9)
Protocol: PC12 cells were obtained from LGC Promochem and cultured under specified conditions. Cells were grown in DMEM medium (Thermo Fischer Scientific, cat# 10566016) containing 10% horse serum (Thermo Fischer Scientific, cat# 16050122), 5% fetal bovine serum (Thermo Fischer Scientific, cat# 10270106), 100 units/mL penicillin, and 0.1 mg/mL streptomycin (Thermo Fischer Scientific, cat# 15140122) at 5% CO2 and 37°C. Cells were used between passages 5 and 20.
CellTox assay (G8742, Promega, Leiden, Belgium) was used to assess the survival of PC12 cells under serum deprivation conditions. PC12 cells were plated in 96-well plates, starved from serum for 4 h, and subsequently treated with NGF (100 ng/mL) or compound (500 nM) for 24 h. CellTox assay reagents and Hoescht (1:10,000, H3570, Invitrogen, Massachusetts, USA) were then added to each well for 30 min, and then, cells were imaged with a Zeiss AXIO Vert A1 fluorescent microscope. CellTox positive cells were normalized to the total number of cells for each image.
Initially, we tested compounds ENT-A002, ENT-A007, ENT-A009, ENTA025, ENT-A026, ENT-A033, ENT-A034, ENT-A035, ENT-A036, ENT-A037, ENT-A046, ENT-A047, ENT-A055, and ENT-A056 for their ability to protect PC12 cells from serum deprivation-induced cell death as well as for their ability to activate TrkA downstream pro-survival signaling kinases Akt and Erk1/2 (Figures 9A–C). We opted to employ PC12 cells, which express receptors TrkA and p75 and have been routinely used for investigating NGF-TrkA signaling. PC12 cells were subjected to a period of nutrient deprivation (without fetal bovine serum and horse serum in their culture medium) for 4 h. Following this, NGF (100 ng/mL) or one of the compounds (500 nM or 1 μM) was administered and allowed to interact with the cells for 24 h. Following that, CellTox and Hoescht dyes were added and cells were imaged to assess cell death. Control cases involved cells cultured in full medium (serum), cells under starvation conditions (serum-free), and cells under starvation conditions treated with DMSO (SF+DMSO).

[1] = system: NIH-3T3 TrkB-expressing cell line; experiment: CellTox Green cytotoxicity assay in NIH-3T3 cells stable transfected with TrkB under serum deprivation; format: cell-based; details: compound 1 μM, 24 h, after 24 h serum starvation; BDNF 500 ng/mL as control
Protocol: (§1) We tested compounds on three cellular systems, primary cortical astrocytes from 2-day-old mice (as a natively TrkB-expressing neuronal population), and NIH-3T3 fibroblasts stable transfected with TrkB and NIH-3T3 naïve cells. Cells were grown with high-glucose DMEM medium supplemented with 10% fetal bovine serum (FBS), 100 μg/mL streptomycin, and 100 units/mL penicillin at 37°C in a humidified 5% CO2 atmosphere. Phosphorylation results presented here are in primary astrocytes, and cell toxicity assay results are in NIH-3T3 stable transfected cells with TrkB.
NIH-3T3 stable transfected cells with TrkB were plated in 96-well plates at a density of 10,000 cells/well, before carrying out serum starvation for 24 h. Cells were then treated for 24 h with either BDNF at 500 ng/mL (control) or the compounds at 1 μM.
(§2) For the cell toxicity assay, we used CellTox™ Green Dye (2,000 × , Promega) for the visualization of dead cells and Hoechst 33,342 solution (10,000 × ) for total cells. A ZEISS Axio Vert.A1 microscope was used for image capture, and the ImageJ software (https://imagej.nih.gov/ij/) was used for analysis. The number of CellTox positive cells was normalized against the total number of cells observed in each image.
The NIH-3T3 TrkB cell line, which is stable and transfected to specifically express the TrkB receptor, was used for the screening of the new compounds for their ability to protect cells from serum deprivation-induced apoptosis through the activation of the TrkB receptor. Cell death was induced by serum deprivation for 24 h and then BDNF (500 ng/mL), the native neurotrophin ligand of the TrkB receptor, or compounds ENT-A007, ENT-A009, ENTA025, ENT-A026, ENT-A033, ENT-A034, ENT-A035, ENT-A036, ENT-A037, ENT-A046, ENT-A047, ENT-A055, and ENT-A056 (1 μM) were added to the media for 24 h.

TrkB = target: T1, TrkB (Mus musculus, UniProt P15209); experiment: TrkB phosphorylation assay in primary astrocytes (Western blot); format: cell-based; details: compound 1 μM, 20 min, after 6 h serum starvation, BDNF 500 ng/mL as control
T1 construct: primary cortical astrocytes from 2-day-old mice (as a natively TrkB-expressing neuronal population); endogenous in cells; host or cells: primary cortical astrocytes from C57B/6 mouse pups (P2)
Protocol: as §1
Cells were plated in 12 well plates, at a density of 100,000 cells per well, with 6 h of serum deprivation carried out on the following day. To assess the effect of compounds on TrkB phosphorylation, 20-min treatments were applied, using either BDNF at 500 ng/mL (Peprotech 450-02) (positive control) or compounds at 1 μM.
Cell lysis for 10 min was carried out on ice using the Pierce IP Lysis Buffer by Thermo Scientific and a phospho-protease inhibitor cocktail by Millipore. After adding loading buffer (5 × Laemni), 25 μg from each protein sample were incubated for 5 min at 95°C and subjected to SDS-PAGE. Proteins were transferred to a nitrocellulose membrane at 350 mA for 2 h. Membrane blocking was performed using 5% bovine serum albumin (BSA) at room temperature for 1 h, before adding the primary antibodies to the blocking solution at 4°C overnight. HRP-conjugated secondary antibodies were used for the detection of chemiluminescence with ECL solution. Primary antibodies: Phospho-TrkB (Tyr816) Millipore # ABN1381, and Anti-TrkB Abcam #ab33655.
Mixed glial cultures were isolated from the cortex of C57B/6 pups at post-natal day 2 (P2). Cells were plated in a medium containing high-glucose DMEM, 200 U/mL penicillin, 200 μg/mL streptomycin, and 10% fetal bovine serum (FBS). When cells reach 100% confluency (7–8 days), the anti-mitotic agent Ara-C was added in the media at a final concentration of 10 μM, for 3 to 4 days to target the highly proliferative microglial cells. Ara-C was removed, and primary astrocytes (97% purity) were cultured at 5% CO2 and 37°C.
Cells were plated at 70–80% confluency. The next day, they were deprived of serum for 6 h and subsequently treated with 500 ng/mL BDNF or 1 μM of compounds for 20 min. Cells were then lysed in Pierce™ IP Lysis Buffer (87788, Thermo Fischer Scientific, Rockford, USA), containing proteases (539138, Calbiochem, Darmstadt, Germany), and phosphatase inhibitors (524629, Calbiochem, Darmstadt, Germany). Lysates were then suspended in an SDS loading buffer and subjected to Western blot against phosphorylated TrkB (1:1,000, ABN1381, Sigma-Aldrich, St. Louis, MO, USA) and total TrkB (1:1,000, 07-225-I, Sigma-Aldrich, St. Louis, MO, USA).

NIH3T3 naive cells = experiment: CellTox assay in NIH3T3 naive cells under serum deprivation; format: cell-based; details: compound 1 μM or BDNF 500 ng/mL, 24 h, after 18 h nutrient deprivation
Protocol: as §1, §2
These cells were treated with the compounds, or BDNF, for 24 h under starvation conditions. Control conditions included cells cultured with serum, serum-free conditions, and serum-free conditions supplemented with DMSO. The cells were subjected to a period of 18 h of nutrient deprivation before the treatments. […] Therefore, we infer that the involvement of the TrkB receptor is indeed essential for the cell-protective effects of ENT-A076, ENT-A087, and ENT-A088 (Figures 14A, B).

[2] = Metabolic stability in pooled human liver microsomes; format: in vitro ADME; details: 1 μM; for residual of time zero: pooled human liver microsomes 0.5 mg/mL, t = 60 min, NADPH; for parent structure loss (depletion) class: pooled human liver microsomes, 60 min
Protocol: For metabolic stability assessment, pooled human liver microsomes were employed at 0.5 mg/mL. Incubation conditions were optimized to ensure linear metabolite formation with respect to protein concentration and reaction time. All test compounds were assessed at 1 μM based on our ADMET standard operating procedures and protocols, also published previously (1 μM was selected based on our ADMET standard operating procedures and protocols also published previously) (Rogdakis et al., [2022]; Yilmaz et al., [2022]). Approximately 1 mM of NADPH served as a cofactor. Reactions took place in triplicates at 37°C. Negative and positive controls (low vs. rapid clearance) were included for low vs. rapid clearance. After 60 min, reactions were terminated.
Parent structure loss is classified as very slow (<5%), slow (5–19%), moderate (20–50%), fast (50–80%), or very fast (>80%). Such categories have been defined according to set criteria, namely, high metabolism (t1/2 value of <30 min), moderate metabolism (30 min <t1/2 value of <60 min), and low metabolism (t1/2 value of >60 min) (EMA, [2012], [2013]; FDA, [2020]).

T1 sequence (P15209 32-821): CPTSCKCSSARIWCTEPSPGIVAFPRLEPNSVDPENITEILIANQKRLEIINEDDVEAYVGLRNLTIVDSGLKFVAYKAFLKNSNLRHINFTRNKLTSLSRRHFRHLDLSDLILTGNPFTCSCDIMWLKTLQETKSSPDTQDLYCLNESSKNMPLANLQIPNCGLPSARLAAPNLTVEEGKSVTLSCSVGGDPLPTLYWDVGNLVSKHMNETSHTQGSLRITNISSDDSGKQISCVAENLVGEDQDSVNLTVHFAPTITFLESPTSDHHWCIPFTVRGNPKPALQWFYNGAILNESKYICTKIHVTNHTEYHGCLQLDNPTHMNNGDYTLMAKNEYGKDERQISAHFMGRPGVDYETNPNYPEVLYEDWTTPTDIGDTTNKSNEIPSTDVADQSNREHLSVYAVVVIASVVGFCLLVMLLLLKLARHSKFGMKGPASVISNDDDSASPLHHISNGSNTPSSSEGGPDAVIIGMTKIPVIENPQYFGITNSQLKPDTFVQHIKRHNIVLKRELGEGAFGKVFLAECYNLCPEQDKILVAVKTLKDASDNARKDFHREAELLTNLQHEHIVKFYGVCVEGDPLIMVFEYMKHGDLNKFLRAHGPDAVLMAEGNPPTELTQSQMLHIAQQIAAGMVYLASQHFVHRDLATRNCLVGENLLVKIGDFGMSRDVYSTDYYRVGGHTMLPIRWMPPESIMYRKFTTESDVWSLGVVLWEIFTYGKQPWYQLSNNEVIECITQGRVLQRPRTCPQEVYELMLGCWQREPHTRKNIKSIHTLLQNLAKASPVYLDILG

Molecule	protection of PC12 cells from serum deprivation-induced cell death (CellTox) (PC12 cells)	protection of NIH-3T3-TrkB cells from serum deprivation-induced cell death (CellTox) [1]	phosphorylation levels of the TrkB receptor (TrkB)	rescue of NIH3T3 naive cells (no neurotrophin receptors) from serum deprivation-induced cell death (CellTox) (NIH3T3 naive cells)	residual of time zero [2] [%]	parent structure loss (depletion) class [2]
CN(C)Cc1cn(CC2=CC[C@@]3(CC[C@H]4[C@@H]5CC=C6C[C@@H](O)CC[C@]6(C)[C@H]5CC[C@@]43C)OC2)nn1 [ENT-A046, (3S,17R)-5′-[(4-((dimethylamino)methyl)-1H-1,2,3-triazol-1-yl)methyl]-3′,6′-dihydrospiro[5-androstene-17,2′-pyran]-3-ol]	without showing any antiapoptotic activity in PC12 cells	significantly reduce cell death levels compared to the serum-free control, comparable to the BDNF action	only ENT-A009 and ENT-A055 successfully increased phosphorylation levels of the TrkB receptor			
C[C@]12CC[C@H](O)CC1=CC[C@@H]1[C@@H]2CC[C@@]2(C)[C@H]1CCC21CC(=O)C1 [ENT-A076, (3S)-3-hydroxy-spiro[5-androsten-17-cyclobutan]-3′-one]		demonstrated the ability to promote cell survival during serum starvation as well as BDNF		neither the compounds nor BDNF were able to rescue the cells from cell death	95	slow (slow (5–19%))
COC(=O)C=C1CC2(CC[C@H]3[C@@H]4CC=C5C[C@@H](O)CC[C@]5(C)[C@H]4CC[C@@]32C)C1 (stereo partly drawn) [ENT-A087]		demonstrated the ability to promote cell survival during serum starvation as well as BDNF		neither the compounds nor BDNF were able to rescue the cells from cell death	> 95	very slow (very slow (<5%))
B1				neither the compounds nor BDNF were able to rescue the cells from cell death		
